The values that follow come from patent US20260184707A1, “PHARMACEUTICAL COMPOUNDS FOR THE TREATMENT OF COMPLEMENT MEDIATED DISORDERS” (ALEXION PHARMACEUTICALS, INC., priority 2022, published 2026).

The experiment deals with T1, Human complement C1s enzyme (Homo sapiens, UniProt P09871).
T1 construct: purified from human serum, Complement Technology, Inc; purchased Complement Technology, Inc; host or cells: human serum (plasma-derived native protein)
T1 sequence (P09871 438-688 limits assumed): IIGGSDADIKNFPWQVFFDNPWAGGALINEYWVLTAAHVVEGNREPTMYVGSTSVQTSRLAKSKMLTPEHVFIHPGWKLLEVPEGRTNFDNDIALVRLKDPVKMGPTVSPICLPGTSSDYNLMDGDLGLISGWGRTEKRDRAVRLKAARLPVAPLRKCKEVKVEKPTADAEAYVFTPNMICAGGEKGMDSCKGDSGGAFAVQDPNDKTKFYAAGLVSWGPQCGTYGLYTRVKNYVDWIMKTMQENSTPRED
T1 sequence (P09871 16-437 partner limits assumed): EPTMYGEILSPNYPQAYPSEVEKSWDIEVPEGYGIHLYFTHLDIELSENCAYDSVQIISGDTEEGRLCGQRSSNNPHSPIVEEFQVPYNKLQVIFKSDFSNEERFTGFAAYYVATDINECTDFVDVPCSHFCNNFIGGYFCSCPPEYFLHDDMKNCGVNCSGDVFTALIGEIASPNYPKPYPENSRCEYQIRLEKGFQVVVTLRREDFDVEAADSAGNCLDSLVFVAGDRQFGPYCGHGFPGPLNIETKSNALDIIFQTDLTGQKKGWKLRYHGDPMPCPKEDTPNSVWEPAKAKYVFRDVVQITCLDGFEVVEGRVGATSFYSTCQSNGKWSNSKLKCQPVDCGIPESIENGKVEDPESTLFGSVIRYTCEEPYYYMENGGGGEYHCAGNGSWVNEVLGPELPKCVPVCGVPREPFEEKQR
In words: Human C1s enzyme assay. To be noted: human complement C1s enzyme 1.16 nM, substrate Z-L-Lys-SBzl, A405; read-out: IC50 (Stars). It counts as biochemical. The essentials:
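Serum-purified human C1s (1.16 nM final) preincubated 5 min at room temperature with compound in 50 mM Tris, 1 M NaCl, pH 7.5. Z-L-Lys-SBzl and DTNB added at 100 μM each; A405 recorded every 30 s. IC50 from nonlinear regression of reaction rates versus compound concentration.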

Broadly, the IC50 is the concentration at which inhibition is half-maximal. Consider `O=C(Cn1c(-c2ccccc2)ncc(NC(=O)CCCOc2ccccc2)c1=O)NCc1cc2cnccc2[nH]1` [Compound 4, N-(1-(2-(((1H-pyrrolo[3,2-c]pyridin-2-yl)methyl)amino)-2-oxoethyl)-6-oxo-2-phenyl-1,6-dihydropyrimidin-5-yl)-4-phen-oxybutanamide], for which the half-inhibitory concentration (IC50) was < 100 nM.
To `O=C(Cn1c(-c2ccc(OC3CCOCC3)cc2)ncc(NCc2ccc3oc4ccccc4c3c2)c1=O)NCc1cc2cnccc2[nH]1` [Compound 280, N-((1H-pyrrolo[3,2-c]pyridin-2-yl)methyl)-2-(5-((dibenzo [b,d]furan-2-ylmethyl)amino)-6-oxo-2-(4-((tetrahydro-2H-pyran-4-yl)oxy)phenyl)pyrimi-din-1(6H)-yl)acetamide] belongs < 100 nM; to `C[C@@H](Nc1cncn(CC(=O)NCc2cc3cnccc3[nH]2)c1=O)c1ccc2c(c1)-c1ccccc1C2(F)F` [Compound 346, (R)-N-((1H-pyrrolo[3,2-c]pyridin-2-yl)methyl)-2-(5-((1-(9,9-difluoro-9H-fluoren-3-yl)-ethyl)amino)-6-oxopyrimidin-1(6H)-yl)acetamide], 100 to 1000 nM.
`O=C(Cn1c(-c2ccccc2)ncc(NCc2ccc3oc4ccccc4c3c2)c1=O)NCc1cc2c(s1)CNCC2` [Compound 143, 2-(5-((dibenzo[b,d]furan-2-yl-methyl)amino)-6-oxo-2-phen-ylpyrimidin-1(6H)-yl)-N-((4,5,6,7-tetrahydrothieno [2,3-c]pyridin-2-yl)methyl)-acetamide]: the IC50 was < 100 nM.
To `C[C@@H](Nc1cnc(-c2ccncc2)n(CC(=O)NCc2cc3cnccc3[nH]2)c1=O)c1ccc2oc3ccccc3c2c1` [Compound 334, (R)-N-((1H-pyrrolo[3,2-c]pyridin-2-yl)methyl)-2-(5-((1-(dibenzo[b,d]furan-2-yl)ethyl)-amino)-6-oxo-2-(pyridin-4-yl)-pyrimidin-1(6H)-yl)acetamide] belongs < 100 nM; to `O=C(Cc1cc(NCCCc2ccccc2)cnc1-c1ccccc1)NCc1cc2cnccc2[nH]1` [Compound 207, N-((1H-pyrrolo[3,2-c]pyridine-2-yl)methyl)-2-(2-phenyl-5-((3-phenylpropyl)amino)146yridine-3-yl)acetamide], > 1000 nM.
With `O=C(Cn1c(-c2ccccc2)ncc(NC(=O)c2ccc(-c3ccc(F)cc3)cc2)c1=O)NCc1cc2cnccc2[nH]1` [Compound 99, N-(1-(2-(((1H-pyrrolo[3,2-c]pyridin-2-yl)methyl)amino)-2-oxoethyl)-6-oxo-2-phenyl-1,6-dihydropyrimidin-5-yl)-4′-fluoro-[1,1′-biphenyl]-4-carboxamide], the half-maximal inhibitory concentration (IC50) was < 100 nM.
To `Cn1cc(-c2ncc(NCc3ccc4oc5ccccc5c4c3)c(=O)n2CC(=O)NCc2cc3cnccc3[nH]2)cn1` [Compound 287, N-((1H-pyrrolo[3,2-c]pyridin-2-yl)methyl)-2-(5-((dibenzo [b,d]furan-2-ylmethyl)amino)-2-(1-methyl-1H-pyrazol-4-yl)-6-oxopyrimidin-1(6H)-yl)-acetamide] belongs < 100 nM.
Consider `CS(=O)(=O)c1ccc(-c2ncc(NCc3ccc4oc5ccccc5c4c3)c(=O)n2CC(=O)NCc2cc3cnccc3[nH]2)cc1` [Compound 134, N-((1H-pyrrolo[3,2-c]pyridin-2-yl)methyl)-2-(5-((dibenzo [b,d]furan-2-ylmethyl)amino)-2-(4-(methylsulfonyl)phenyl)-6-oxopyrimidin-1(6H)-yl)-acetamide], for which the half-maximal inhibitory concentration (IC50) was < 100 nM.
For the molecule `O=C(Cn1c(-c2ccccc2)ncc(NC(=O)c2ccc(Oc3ccc(Br)cc3)cc2)c1=O)NCc1cc2cnccc2[nH]1` [Compound 51, N-(1-(2-(((1H-pyrrolo[3,2-c]pyridin-2-yl)methyl)amino)-2-oxoethyl)-6-oxo-2-phenyl-1,6-dihydropyrimidin-5-yl)-4-(4-bromophenoxy)benzamide], the IC50 was < 100 nM.
For the molecule `O=C(Cn1c(-c2ccc(N3CCOCC3)nc2)ncc(NCc2ccc3oc4ccccc4c3c2)c1=O)NCc1cc2cnccc2[nH]1` [Compound 279, N-((1H-pyrrolo[3,2-c]pyridin-2-yl)methyl)-2-(5-((dibenzo [b,d]furan-2-ylmethyl)amino)-2-(6-morpholinopyridin-3-yl)-6-oxopyrimidin-1(6H)-yl)-acetamide], the IC50 is < 100 nM.
On to `C[C@H](Nc1cnc(-c2ccncc2)n(CC(=O)NCc2cc3cnccc3[nH]2)c1=O)c1ccc2oc3ccccc3c2c1` [Compound 315, (S)-N-((1H-pyrrolo[3,2-c]pyridin-2-yl)methyl)-2-(5-((1-(dibenzo[b,d]furan-2-yl)ethyl)-amino)-6-oxo-2-(pyridin-4-yl)-pyrimidin-1(6H)-yl)acetamide], for which the IC50 is < 100 nM.
To `O=C(Cn1c(-c2ccc(O[C@@H]3CO[C@H]4[C@@H]3OC[C@H]4O)cc2)ncc(NC(=O)c2ccc(-c3ccccc3)s2)c1=O)NCc1cc2cnccc2[nH]1` [Compound 264, N-(1-(2-(((1H-pyrrolo[3,2-c]pyridin-2-yl)methyl)amino)-2-oxoethyl)-2-(4-(((3R,3aR,6R, 6aR)-6-hydroxyhexahydrofuro [3,2-b]furan-3-yl)oxy)phenyl)-6-oxo-1,6-dihydropyrimidin-5-yl)-5-phenylthiophene-2-carboxamide] belongs < 100 nM; to `C[C@@H](Nc1nnc(N2CCCCC2)n(CC(=O)NCc2cc3cnccc3[nH]2)c1=O)c1ccc2oc3ccccc3c2c1` [Compound 491, (R)-N-((1H-pyrrolo[3,2-c]pyridin-2-yl)methyl)-2-(6-((1-(dibenzo[b,d]furan-2-yl)ethyl)-amino)-5-oxo-3-(piperidin-1-yl)-1,2,4-triazin-4(5H)-yl)-acetamide], < 100 nM.
Under `C[C@@H](Nc1cnc(-c2cccc(F)c2)n(CC(=O)NCc2cc3cnccc3[nH]2)c1=O)c1ccc2oc3ccccc3c2c1` [Compound 229, (R)-N-((1H-pyrrolo[3,2-c]pyr-idin-2-yl)methyl)-2-(5-((1-(dibenzo[b,d]furan-2-yl)ethyl)-amino)-2-(3-fluorophenyl)-6-oxopyrimidin-1(6H)-yl)acet-amide] stands < 100 nM.
To `O=C(Cn1c(-c2ccc(OCc3ccccn3)cc2)ncc(NC(=O)c2ccc(-c3ccccc3)cc2)c1=O)NCc1cc2cnccc2[nH]1` [Compound 225, N-[6-Oxo-1-[2-oxo-2-(1H-pyrrolo[3,2-c]pyridine-2-ylmethylamino)ethyl]-2-[4-(2-pyridylmethoxy)phenyl]pyrimidin-5-yl]-4-phenyl-benzamide] belongs < 100 nM.
As to `O=C(Cn1c(-c2ccccc2)ncc(NC(=O)c2ccc(Oc3ccccc3)nc2)c1=O)NCc1cc2cnccc2[nH]1` [Compound 74, N-(1-(2-(((1H-pyrrolo[3,2-c]pyridin-2-yl)methyl)amino)-2-oxoethyl)-6-oxo-2-phenyl-1,6-dihydropyrimidin-5-yl)-6-phenoxynicotinamide], the IC50 is < 100 nM.
To `O=C(Cn1c(-c2ccccc2F)ncc(NCc2ccc3oc4ccccc4c3c2)c1=O)NCc1cc2cnccc2[nH]1` [Compound 120, N-((1H-pyrrolo[3,2-c]pyridin-2-yl)methyl)-2-(5-((dibenzo [b,d]furan-2-ylmethyl)amino)-2-(2-fluorophenyl)-6-oxopyr-imidin-1(6H)-yl)acetamide] belongs < 100 nM.
Under `C[C@@H](Nc1ncc(C2=CCOCC2)n(CC(=O)NCc2cc3cnccc3[nH]2)c1=O)c1ccc2oc3ccccc3c2c1` [Compound 426, (R)—N-((1H-Pyrrolo[3,2-c]pyridine-2-yl)methyl)-2-(3-((1-(dibenzo[b,d]furan-2-yl)ethyl)amino)-6-(3,6-dihydro-2H-pyran-4-yl)-2-oxopyrazin-1(2H)-yl)acetamide] stands < 100 nM; under `C[C@@H](Nc1cnc(-c2ccc(O[C@@H]3CO[C@H]4[C@@H]3OC[C@H]4O)cc2)n(CC(=O)NCc2cc3cnccc3[nH]2)c1=O)c1ccc2oc3ccccc3c2c1` [Compound 377, N-((1H-pyrrolo[3,2-c]pyridine-2-yl)methyl)-2-(5-(((R)-1-(dibenzo[b,d]furan-2-yl)ethyl)amino)-2-(4-(((3R,3aR,6R,6aR)-6-hydroxyhexahydrofuro[3,2-b]furan-3-yl)oxy)phenyl)-6-oxopyrimidin-1(6H)-yl)acetamide], < 100 nM; under `O=C(Cn1c(C2CCCC2)ncc(NCc2ccc3oc4ccccc4c3c2)c1=O)NCc1cc2cnccc2[nH]1` [Compound 253, N-((1H-pyrrolo[3,2-c]pyridine-2-yl)methyl)-2-(2-cyclopentyl-5-((dibenzo[b,d]furan-2-ylmethyl)amino)-6-oxopyrimidin-1(6H)-yl)acetamide], < 100 nM.
Consider `O=C(Cn1c(-c2ccccc2)ncc(NCc2ccc(-c3ccccc3F)cc2)c1=O)NCc1cc2cnccc2[nH]1` [Compound 250, N-((1H-pyrrolo[3,2-c]pyridin-2-yl)methyl)-2-(5-(((2′-fluoro-[1,1′-biphenyl]-4-yl)methyl)amino)-6-oxo-2-phenylpyrimidin-1(6H)-yl)acetamide], for which the IC50 is < 100 nM.
